Where two headings read alike, the source gives them in different places.
Key:
[1] = test system: Carrageenan-induced paw edema in the rat; experiment: Carrageenan-induced paw edema in rat; format: in vivo, rat (female albino, Sim:(SD)fbr); conditions: one hour prior to carrageenan
Description: 1. Carrageenan-induced paw edema in the rat. […] A solution of carrageenan injected into the foot pad of a rat causes reddening, swelling and pain which is maximal three to six hours after administration and then resolves. […] Immuno-suppressive agents are not effective under these circumstances.
Carrageenan-induced Paw Edema in Rat
Method: Test for Determining Anti-Inflammatory Activity Utilizing Carrageenan-Induced Paw Inflammation in Rats
The method used was basically that of Winter, et al. (See, Winter, C.A., Risley, E.A., and Nuss, G.W.: Carrageenan-induced edema in hind paw of the rat as an assay for anti-inflammatory drugs, Proc. Soc. Exp. Biol. Med. 111:544-547, 1962.) Female albino rats (Sim: (SD)fbr) weighing 80-90 g received the test material p.o. in 1 ml aqueous vehicle at hour zero (0 hr). One hour later (hr 1), 0.05 ml of a 1% solution (in aqueous 0.9% NaCl) or carrageenan was injected into the right hind paw to inflame the paw. The rats were sacrificed at hour 4, at which time both hind paws were removed and individually weighed. The percent increase in the weight of the inflamed paw over that of the opposite non-inflamed paw was calculated.

[2] = test system: Experimental Allergic Encephalomyelitis in Rat; experiment: Experimental Allergic Encephalomyelitis in rat; format: in vivo, rat (female LEW/Crl BR); conditions: for Body Wt.: day 17
Description: 3. Experimental allergic encephalomyelitis in the rat. […] A mixture of syngeneic spinal cord homogenate in Freund's Complete Adjuvant injected subcutaneously into the rat induces an […] response directed against the myelin covering the nerves of the central nervous system. […] These symptoms result from attack of immune cells on the nerves with subsequent destruction and loss of ability to transmit the nervous impulses necessary for controlling muscle function. […] This is consistent with the general immuno-suppressive effects of this drug. Corticosteroid treatment also prevents the appearance of paralytic symptoms, but the dose of corticosteroid required is such that the corticosteroid itself causes weight loss greater than that produced by the disease alone. In contrast to their action in Adjuvant-inducted Arthritis in the rat, aspirin-like drugs are completely ineffective in preventing the symptoms and weight loss of experimental allergic encephalomyelitis.
Experimental Allergic Encephalomyelitis in Rat
Method: Test for Inhibition of Experimental Allergic Encephalomyelitis Induced in Rats
Female LEW/Crl BR rats weighing 125-135 g were randomly assigned to treatment groups of ten animals. Experimental allergic encephalomyelitis was induced by injecting into the right hind paw of each animal 0.1 ml of an emulsion containing 15 mg (wet weight) of syngeneic spinal cord tissue, 0.06 ml of Freund's Incomplete Adjuvant (Difco), 0.04 ml of sterile 0.9% saline and 0.2 mg of heat-killed, dried Mycobacterium butyricum (Difco). Test materials prepared as solutions or suspensions in aqueous carboxymethyl cellulose vehicle were administered orally each day for 16 days, starting on the day of injection. Animals were individually identified and weighed on day one, and again on day 17.

[3] = test system: Adjuvant-induced Arthritis in Rat; experiment: Adjuvant-induced Arthritis in rat; format: in vivo, rat (female Hla:(SD) BR); conditions: oral
[4] = Ability to cause gastro-intestinal erosion in rats; parameters: species or system rat (male Lai:COX (SD)); conditions: in vivo, rat
Experimental: Method: Test for Ability to Cause Gastro-Intestinal Erosion in Rats
Male Lai: COX (SD) rats weighing 200-250 g were acclimated for one week under standard laboratory conditions. Each animal was individually identified and body weights were determined on the first day of the test and again at autopsy. The test materials, suspended in aqueous carboxymethyl cellulose vehicle, were administered orally once daily in a volume of 1.0 ml per 100 g body weight for seven consecutive days. Food was withdrawn from the animals following the last dose and the animals were sacrificed 24 hours later. At necropsy, the stomach and intestines were removed and observed for lesions. […] The highest test dose level producing no detectable lesions is reported.

[5] = test system: Gastro-Intestinal Erosion in Rats; conditions: background, in words; cited from earlier work
[6] = test system: Experimental Allergic Encephalomyelitis in Rat; conditions: daily treatment, background; cited from earlier work
[7] = test system: Adjuvant-induced Arthritis in Rat; conditions: daily administration of appropriate doses, background; cited from earlier work
[8] = oral dose 100 mg/kg, * = not significant
[9] = oral 10 mg/kg daily for 16 days
[10] = oral dose 10 mg/kg, * = not significant
[11] = oral dose 30 mg/kg, * = not significant
[12] = oral once daily for seven days, read-out: Minimum Dose causing G.I. Erosions
[13] = oral 50 mg/kg daily for 16 days

With `Cc1cccc(NC(=O)OCc2ccccc2)c1C(=O)O` [2-benzyloxycarbonylamino-6-methylbenzoic acid] the “Inhibition of Hind Paw Weight Increase” value [1, 8] was 10 and the “Body Wt.” value [2, 9] was 146 ± 3.6 gm.

For `C[C@@H]1C[C@H]2[C@@H]3CCC4=CC(=O)C=C[C@]4(C)[C@@]3(F)[C@@H](O)C[C@]2(C)[C@@]1(O)C(=O)CO` [Dexamethasone, reference compound], the “Inhibition of Hind Paw Weight Increase” value ([1]; oral dose 0.1 mg/kg) was 71, the “Body Wt.” value ([2]; oral 0.25 mg/kg daily for 16 days) was 130 ± 0.4 gm and the “% Animals With Paralysis” value ([2]; oral 0.25 mg/kg daily for 16 days, observed days 12-17) was 0%.

For `CCOC(=O)Nc1cccc(C)c1C(=O)O` [2-Ethoxycarbonylamino-6-methylbenzoic acid], the “Inhibition of Hind Paw Weight Increase” value [1, 10] was 9, the “Inhibition of Hind Paw Weight Increase” value [1, 11] was 13 and the “Inhibition of Hind Paw Weight Increase” value [1, 8] was 12. The “Body Wt.” value ([2]; oral 5 mg/kg daily for 16 days) was 164 ± 4.9 gm, the “Body Wt.” value [2, 9] was 155 ± 3.7 gm and the “Body Wt.” value ([2]; oral 25 mg/kg daily for 16 days) was 154 ± 6.0 gm. The “Inhibition of Adjuvant Arthritis” value ([3]; at 50 mg/kg, n.s.) was 30% and the NOAEL at 168 h [4, 12] was over 100 mg/kg/day.

With `O=C(Nc1ccccc1C(=O)O)OCc1ccccc1` [2-Benzyloxycarbonyl-aminobenzoic acid, 2-benzyloxycarbonylaminobenzoic acid] the “Body Wt.” value ([2]; oral 2 mg/kg daily for 16 days) was 131 ± 3.6 gm and the “Body Wt.” value [2, 9] was 141 ± 6.3 gm.

With `Cc1cccc(N)c1C(=O)O` [2-Amino-6-methylbenzoic acid, 2-amino-6-methyl-benzoic acid, reference compound] the “Inhibition of Hind Paw Weight Increase” value [1, 10] was 5, the “Inhibition of Hind Paw Weight Increase” value [1, 11] was 7 and the “Inhibition of Hind Paw Weight Increase” value [1, 8] was 0. The “Body Wt.” value ([2]; oral 2 mg/kg daily for 16 days) was 153 ± 5.2 gm, the “Body Wt.” value [2, 9] was 145 ± 4.1 gm and the “Body Wt.” value [2, 13] was 141 ± 4.0 gm. The “Inhibition of Adjuvant Arthritis” value ([3]; at 50 mg/kg, n.s.) was 0% and the NOAEL at 168 h ([4]; po) was over 250 mg/kg/day.

With `O=C(O)c1ccccc1Nc1cccc(C(F)(F)F)c1` [Flufenamic acid, reference compound] the “Inhibition of Hind Paw Weight Increase” value [1, 10] was 35, the “Inhibition of Hind Paw Weight Increase” value [1, 8] was 52 and the “Body Wt.” value ([2]; oral 30 mg/kg daily for 16 days) was 135 ± 2.4 gm. The “Body Wt.” value ([2]; oral 100 mg/kg daily for 16 days) was 128 ± 2.1 gm, the “Inhibition of Adjuvant Arthritis” value ([3]; at 35 mg/kg) was 80% and the NOAEL at 168 h ([4]; po) was 35 mg/kg/day. For the same compound, the “gastro-intestinal effects associated with aspirin-like drugs” value [5] was “gastro-intestinal (ulcerogenic) effects”.

For `CCOC(=O)Nc1ccccc1C(=O)O` [2-Ethoxycarbonyl-aminobenzoic acid, 2-ethoxycarbonylaminobenzoic acid], the “Body Wt.” value ([2]; oral 2 mg/kg daily for 16 days) was 150 ± 4.2 gm, the “Body Wt.” value [2, 9] was 162 ± 3.4 gm and the “Body Wt.” value [2, 13] was 151 ± 4.4 gm.

For `CCOC(=O)Nc1cc(OC)c(OC)cc1C(=O)O` [2-ethoxycarbonylamino-4,5-dimethoxybenzoic acid], the “Body Wt.” value ([2]; oral 2 mg/kg daily for 16 days) was 157 ± 4.0 gm, the “Body Wt.” value [2, 9] was 137 ± 5.7 gm and the “Body Wt.” value [2, 13] was 154 ± 5.8 gm. For the same compound, the “Inhibition of Adjuvant Arthritis” value ([3]; at 50 mg/kg, n.s.) was 0% and the NOAEL at 168 h [4, 12] was over 100 mg/kg/day.

For `Cc1cccc(NC(=O)OCC(C)C)c1C(=O)O` [2-isobutoxycarbonylamino-6-methylbenzoic acid], the “Inhibition of Hind Paw Weight Increase” value [1, 8] was 23, the “Inhibition of Adjuvant Arthritis” value ([3]; at 50 mg/kg, n.s.) was 0% and the NOAEL at 168 h [4, 12] was over 100 mg/kg/day.

In the case of `COc1cc(NC(=O)OCc2ccccc2)c(C(=O)O)cc1OC` [2-benzyloxycarbonylamino-4,5-dimethoxybenzoic acid], the “Body Wt.” value ([2]; oral 2 mg/kg daily for 16 days) is reported as 142 ± 5.3 gm and the “Body Wt.” value [2, 9] is reported as 144 ± 3.9 gm.

In the case of `O=P1(N(CCCl)CCCl)NCCCO1` (stereo not drawn) [cyclophosphamide], the “effect on weight loss and paralysis in experimental allergic encephalomyelitis” value [6] is given as “gives protection from the weight loss and paralysis” and the “control of manifestations of Adjuvant-induced arthritis” value [7] is given as “effectively controlled”.
